Assay results reported in patent publication US10294202B2, “Pyrrolidinones as herbicides” (FMC Corporation, priority 2013, dated 2019).

How the values were obtained:
morningglory = test: Test C pre-/postemergence herbicide test; type: in vivo, Ipomoea coccinea
Summary of the method: (§1)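 Greenhouse plants scored visually against untreated controls 13–15 days after treatment, 0 = no effect, 100 = complete control. Test chemicals in a non-phytotoxic solvent with surfactant were applied either to soil (loam/sand) at planting or to foliage of 1- to 4-leaf plants, 2–18 cm tall.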

corn [1] = test: Test A pre-/postemergence herbicide test; type: in vivo, Zea mays
Summary of the method: (§2)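 Visual 0–100 ratings (100 = complete control) made about 10 days after treatment, greenhouse-held plants compared with untreated controls. Treatments: postemergence sprays on one- to two-leaf plants (2–10 cm tall) and preemergence directed soil sprays after planting in loam–sand, chemicals formulated in non-phytotoxic solvent containing surfactant.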

lambsquarters = test: Test C pre-/postemergence herbicide test; type: in vivo, Chenopodium album
Summary of the method: as §1

pigweed = test: Test A pre-/postemergence herbicide test; type: in vivo, Amaranthus retroflexus
Summary of the method: as §2

barnyardgrass = test: Test A pre-/postemergence herbicide test; type: in vivo, Echinochloa crus-galli
Summary of the method: as §2

blackgrass = test: Test C pre-/postemergence herbicide test; type: in vivo, Alopecurus myosuroides
Summary of the method: as §1

nutsedge, yellow = test: Test C pre-/postemergence herbicide test; type: in vivo, Cyperus esculentus
Summary of the method: as §1

ducksalad = test: Test B flooded paddy test; type: in vivo, Heteranthera limosa; details: Flood, scale of 0 to 100 where 0 is no effect and 100 is complete control
Summary of the method: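 Treatment was made at the 2-leaf stage by dosing the standing floodwater, kept 3 cm above soil level for the whole test. Greenhouse exposure lasted 13 to 15 days. Response is a visual percent rating relative to controls, where a dash indicates no test result.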

corn [2] = test: Test C pre-/postemergence herbicide test; type: in vivo, Zea mays
Summary of the method: as §1

oilseed rape = test: Test C pre-/postemergence herbicide test; type: in vivo, Brassica napus
Summary of the method: as §1

soybean = test: Test C pre-/postemergence herbicide test; type: in vivo, Glycine max
Summary of the method: as §1

[3] = Postemergence, 31 g ai/ha, scale 0 to 100 (0 no effect, 100 complete control)
[4] = Postemergence, 62 g ai/ha, scale 0 (no effect) to 100 (complete control)
[5] = Postemergence, 125 g ai/ha, scale 0 to 100 (0 no effect, 100 complete control)
[6] = Postemergence, 250 g ai/ha, scale 0 to 100 (0 no effect, 100 complete control)
[7] = Preemergence, 31 g ai/ha, scale 0 to 100, 0 is no effect and 100 is complete control
[8] = Preemergence, 62 g ai/ha, scale 0 to 100 (0 no effect, 100 complete control)
[9] = Preemergence, 125 g ai/ha, scale 0 to 100 (0 no effect, 100 complete control)
[10] = Postemergence, 125 g ai/ha, 0 to 100 scale, 0 is no effect, 100 is complete control
[11] = Postemergence, 500 g ai/ha, 0 to 100 scale (0 no effect, 100 complete control)
[12] = Preemergence, 125 g ai/ha, 0 to 100 scale where 0 is no effect and 100 is complete control
[13] = preemergence, 500 g ai/ha, 0 to 100 scale, 0 is no effect and 100 is complete control
[14] = 125 g ai/ha, visual rating, 0 to 100 scale, 0 no effect, 100 complete control, approximately 10 days, preemergence

## O=C1NCC(c2cccc(Cl)c2)C1C(=O)Nc1cccc(F)c1F (racemic) [Compound 275]
morningglory; [3]
  Plant response rating, Morningglory: 10
morningglory; [4]
  Plant response rating, Morningglory: 10
morningglory; [5]
  Plant response rating, Morningglory: 20
morningglory; [6]
  Plant response rating, Morningglory: 20
morningglory; [7]
  Morningglory plant response rating: 0
morningglory; [8]
  Morningglory plant response rating: 0
morningglory; [9]
  Plant response rating, Morningglory: 0
morningglory; Preemergence, 250 g ai/ha
  Plant response rating (scale of 0 to 100), Morningglory: 50
Corn [1]; [10]
  Plant response rating, Corn: 40
Corn [1]; [11]
  Plant response rating, Corn: 90
lambsquarters; [3]
  Plant response rating, Lambsquarters: 10
lambsquarters; [4]
  Plant response rating, Lambsquarters: 60
lambsquarters; [5]
  Plant response rating, Lambsquarters: 75
lambsquarters; [6]
  Plant response rating, Lambsquarters: 75
lambsquarters; [7]
  Lambsquarters plant response rating: 70
lambsquarters; [8]
  Lambsquarters plant response rating: 75
lambsquarters; [9]
  Plant response rating, Lambsquarters: 85
lambsquarters; Preemergence, 250 g ai/ha
  Plant response rating (scale of 0 to 100), Lambsquarters: 98
pigweed; Postemergence, 125 g ai/ha, visual rating on 0 to 100 scale (0 no effect, 100 complete control), approx. 10 days
  Plant response rating, Pigweed: 30
pigweed; [11]
  Plant response rating, Pigweed: 40
pigweed; [12]
  Plant response rating, Pigweed: 20
pigweed; [13]
  Plant response rating, Pigweed: 30
barnyardgrass; [10]
  Plant response rating, Barnyardgrass: 90
barnyardgrass; [11]
  Plant response rating, Barnyardgrass: 90
barnyardgrass; [12]
  Plant response rating, Barnyardgrass: 90
barnyardgrass; [13]
  Plant response rating, Barnyardgrass: 90
blackgrass; [3]
  Plant response rating, Blackgrass: 0
blackgrass; [4]
  Plant response rating, Blackgrass: 0
blackgrass; [5]
  Plant response rating, Blackgrass: 5
blackgrass; [6]
  Plant response rating, Blackgrass: 40
blackgrass; [7]
  Blackgrass plant response rating: 45
blackgrass; [8]
  Blackgrass plant response rating: 60
blackgrass; [9]
  Plant response rating, Blackgrass: 70
blackgrass; Preemergence, 250 g ai/ha
  Plant response rating (scale of 0 to 100), Blackgrass: 80
nutsedge, yellow; [3]
  Plant response rating, Nutsedge, Yellow: 0
nutsedge, yellow; [4]
  Plant response rating, Nutsedge, Yellow: 0
nutsedge, yellow; [5]
  Plant response rating, Nutsedge, Yellow: 0
nutsedge, yellow; [6]
  Plant response rating, Nutsedge, Yellow: 20
nutsedge, yellow; [7]
  Nutsedge, Yellow plant response rating: 45
nutsedge, yellow; [8]
  Nutsedge, Yellow plant response rating: 25
nutsedge, yellow; [9]
  Plant response rating, Nutsedge, Yellow: 35
nutsedge, yellow; Preemergence, 250 g ai/ha
  Plant response rating (scale of 0 to 100), Nutsedge, Yellow: 100
ducksalad; 500 g ai/ha
  Plant response rating, Ducksalad: 100
Corn [2]; [3]
  Plant response rating, Corn: 0
Corn [2]; [4]
  Plant response rating, Corn: 0
Corn [2]; [5]
  Plant response rating, Corn: 0
Corn [2]; [6]
  Plant response rating, Corn: 55
Corn [2]; [7]
  Corn plant response rating: 0
Corn [2]; [8]
  Corn plant response rating: 10
Corn [2]; [9]
  Plant response rating, Corn: 75
Corn [2]; Preemergence, 250 g ai/ha
  Plant response rating (scale of 0 to 100), Corn: 75
Oilseed rape; [3]
  Plant response rating, Oilseed Rape: 5
Oilseed rape; [4]
  Plant response rating, Oilseed Rape: 5
Oilseed rape; [5]
  Plant response rating, Oilseed Rape: 35
Oilseed rape; [6]
  Plant response rating, Oilseed Rape: 45
Oilseed rape; [7]
  Oilseed Rape plant response rating: 0
Oilseed rape; [8]
  Oilseed Rape plant response rating: 50
Oilseed rape; [9]
  Plant response rating, Oilseed Rape: 90
Oilseed rape; Preemergence, 250 g ai/ha
  Plant response rating (scale of 0 to 100), Oilseed Rape: 90
soybean; [3]
  Plant response rating, Soybean: 0
soybean; [4]
  Plant response rating, Soybean: 0
soybean; [5]
  Plant response rating, Soybean: 0
soybean; [6]
  Plant response rating, Soybean: 10
soybean; [7]
  Soybean plant response rating: 0
soybean; [8]
  Soybean plant response rating: 0
soybean; [9]
  Plant response rating, Soybean: 0
soybean; Preemergence, 250 g ai/ha
  Plant response rating (scale of 0 to 100), Soybean: 15

## O=C1NCC(c2ccc(C(F)(F)F)cc2)C1C(=O)Nc1ccccc1Cl (stereo not drawn) [Compound 233]
morningglory; [7]
  Morningglory plant response rating: 0
morningglory; [8]
  Morningglory plant response rating: 0
morningglory; [9]
  Plant response rating, Morningglory: 20
morningglory; Preemergence, 250 g ai/ha
  Plant response rating (scale of 0 to 100), Morningglory: 20
Corn [1]; [10]
  Plant response rating, Corn: 20
Corn [1]; Postemergence, 500 g ai/ha
  Corn plant response rating (0 to 100 scale, 0 is no effect, 100 is complete control): 20
lambsquarters; [7]
  Lambsquarters plant response rating: 85
lambsquarters; [8]
  Lambsquarters plant response rating: 85
lambsquarters; [9]
  Plant response rating, Lambsquarters: 95
lambsquarters; Preemergence, 250 g ai/ha
  Plant response rating (scale of 0 to 100), Lambsquarters: 90
pigweed; [14]
  Plant response rating, Pigweed: 30
pigweed; [10]
  Plant response rating, Pigweed: 0
pigweed; Postemergence, 500 g ai/ha
  Pigweed plant response rating (0 to 100 scale, 0 is no effect, 100 is complete control): 20
pigweed; [13]
  Plant response rating, Pigweed: 30
barnyardgrass; [14]
  Plant response rating, Barnyardgrass: 80
barnyardgrass; [10]
  Plant response rating, Barnyardgrass: 70
barnyardgrass; Postemergence, 500 g ai/ha
  Barnyardgrass plant response rating (0 to 100 scale, 0 is no effect, 100 is complete control): 90
barnyardgrass; [13]
  Plant response rating, Barnyardgrass: 90
blackgrass; [7]
  Blackgrass plant response rating: 30
blackgrass; Preemergence, 62 g ai/ha, scale 0 to 100
  Plant response rating, Blackgrass: 45
blackgrass; [9]
  Plant response rating, Blackgrass: 60
blackgrass; Preemergence, 250 g ai/ha
  Plant response rating (scale of 0 to 100), Blackgrass: 90
nutsedge, yellow; [7]
  Nutsedge, Yellow plant response rating: 0
nutsedge, yellow; [8]
  Nutsedge, Yellow plant response rating: 0
nutsedge, yellow; [9]
  Plant response rating, Nutsedge, Yellow: 0
nutsedge, yellow; Preemergence, 250 g ai/ha
  Plant response rating (scale of 0 to 100), Nutsedge, Yellow: 0
ducksalad; 500 g ai/ha
  Plant response rating, Ducksalad: 100
Corn [2]; [7]
  Corn plant response rating: 0
Corn [2]; [8]
  Corn plant response rating: 0
Corn [2]; [9]
  Plant response rating, Corn: 10
Corn [2]; Preemergence, 250 g ai/ha
  Plant response rating (scale of 0 to 100), Corn: 35
Oilseed rape; [7]
  Oilseed Rape plant response rating: 0
Oilseed rape; [8]
  Oilseed Rape plant response rating: 40
Oilseed rape; [9]
  Plant response rating, Oilseed Rape: 80
Oilseed rape; Preemergence, 250 g ai/ha
  Plant response rating (scale of 0 to 100), Oilseed Rape: 85
soybean; [7]
  Soybean plant response rating: 0
soybean; [8]
  Soybean plant response rating: 0
soybean; [9]
  Plant response rating, Soybean: 5
soybean; Preemergence, 250 g ai/ha
  Plant response rating (scale of 0 to 100), Soybean: 0

## O=C1NCC(c2ccc(C(F)(F)F)c(F)c2)C1C(=O)Nc1cccc(F)c1F (racemic) [Compound 247]
morningglory; [7]
  Morningglory plant response rating: 0
morningglory; [8]
  Morningglory plant response rating: 0
morningglory; [9]
  Plant response rating, Morningglory: 5
morningglory; Preemergence, 250 g ai/ha
  Plant response rating (scale of 0 to 100), Morningglory: 20
Corn [1]; [10]
  Plant response rating, Corn: 0
Corn [1]; [11]
  Plant response rating, Corn: 20
Corn [1]; [12]
  Plant response rating, Corn: 0
Corn [1]; [13]
  Plant response rating, Corn: 0
lambsquarters; [7]
  Lambsquarters plant response rating: 0
lambsquarters; [8]
  Lambsquarters plant response rating: 90
lambsquarters; [9]
  Plant response rating, Lambsquarters: 70
lambsquarters; Preemergence, 250 g ai/ha
  Plant response rating (scale of 0 to 100), Lambsquarters: 80
pigweed; [10]
  Plant response rating, Pigweed: 0
pigweed; [11]
  Plant response rating, Pigweed: 0
pigweed; [12]
  Plant response rating, Pigweed: 0
pigweed; [13]
  Plant response rating, Pigweed: 0
barnyardgrass; [10]
  Plant response rating, Barnyardgrass: 60
barnyardgrass; [11]
  Plant response rating, Barnyardgrass: 80
barnyardgrass; [12]
  Plant response rating, Barnyardgrass: 90
barnyardgrass; [13]
  Plant response rating, Barnyardgrass: 90
blackgrass; [7]
  Blackgrass plant response rating: 0
blackgrass; [8]
  Blackgrass plant response rating: 50
blackgrass; [9]
  Plant response rating, Blackgrass: 60
blackgrass; Preemergence, 250 g ai/ha
  Plant response rating (scale of 0 to 100), Blackgrass: 70
nutsedge, yellow; [7]
  Nutsedge, Yellow plant response rating: 0
nutsedge, yellow; [8]
  Nutsedge, Yellow plant response rating: 20
nutsedge, yellow; [9]
  Plant response rating, Nutsedge, Yellow: 20
nutsedge, yellow; Preemergence, 250 g ai/ha
  Plant response rating (scale of 0 to 100), Nutsedge, Yellow: 0
ducksalad; 1000 g ai/ha
  Plant response rating, Ducksalad: 95
Corn [2]; [7]
  Corn plant response rating: 5
Corn [2]; [8]
  Corn plant response rating: 15
Corn [2]; [9]
  Plant response rating, Corn: 60
Corn [2]; Preemergence, 250 g ai/ha
  Plant response rating (scale of 0 to 100), Corn: 60
Oilseed rape; [7]
  Oilseed Rape plant response rating: 5
Oilseed rape; [8]
  Oilseed Rape plant response rating: 30
Oilseed rape; [9]
  Plant response rating, Oilseed Rape: 30
Oilseed rape; Preemergence, 250 g ai/ha
  Plant response rating (scale of 0 to 100), Oilseed Rape: 80
soybean; [7]
  Soybean plant response rating: 0
soybean; [8]
  Soybean plant response rating: 0
soybean; [9]
  Plant response rating, Soybean: 0
soybean; Preemergence, 250 g ai/ha
  Plant response rating (scale of 0 to 100), Soybean: 0
